Laboratory results reported in PubChem BioAssay (NCI).
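Cultured in 96-well plates, cells were exposed to test compound for 48 hours across five concentrations. Abbreviation: GI50, concentration required for 50% inhibition of growth. TGI denotes the concentration required for complete inhibition of growth.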

Experiments:
Assay in all cases: NCI anticancer screen, dose series, 48 h
MOLT-4 leukemia = tested on: MOLT-4 leukemia
KM12 colon = tested on: KM12 colon
HOP-62 NSCLC = tested on: HOP-62 NSCLC
SN12C renal = tested on: SN12C renal
MCF7 breast = tested on: MCF7 breast
U251 CNS = tested on: U251 CNS
NCI-H23 lung = tested on: NCI-H23 lung
OVCAR-8 ovarian = tested on: OVCAR-8 ovarian
COLO 205 colon = tested on: COLO 205 colon
HCC-2998 colon = tested on: HCC-2998 colon
CCRF-CEM leukemia = tested on: CCRF-CEM leukemia
BT-549 breast = tested on: BT-549 breast
M14 melanoma = tested on: M14 melanoma
NCI-H226 lung = tested on: NCI-H226 lung
786-0 renal = tested on: 786-0 renal
ACHN renal = tested on: ACHN renal
UACC-62 melanoma = tested on: UACC-62 melanoma
HS 578T breast = tested on: HS 578T breast
SF-539 CNS = tested on: SF-539 CNS
NCI-H460 lung = tested on: NCI-H460 lung
EKVX NSCLC = tested on: EKVX NSCLC
MALME-3M melanoma = tested on: MALME-3M melanoma
SK-MEL-5 melanoma = tested on: SK-MEL-5 melanoma
SK-OV-3 ovarian = tested on: SK-OV-3 ovarian
CAKI-1 renal = tested on: CAKI-1 renal
UACC-257 melanoma = tested on: UACC-257 melanoma
SF-295 CNS = tested on: SF-295 CNS
RPMI-8226 leukemia = tested on: RPMI-8226 leukemia
MDA-MB-468 breast = tested on: MDA-MB-468 breast
RXF 393 renal = tested on: RXF 393 renal
SW-620 colon = tested on: SW-620 colon
SK-MEL-28 melanoma = tested on: SK-MEL-28 melanoma
OVCAR-5 ovarian = tested on: OVCAR-5 ovarian
SNB-75 CNS = tested on: SNB-75 CNS
TK-10 renal = tested on: TK-10 renal
MDA-MB-435 = tested on: MDA-MB-435
NCI-H522 lung = tested on: NCI-H522 lung
IGROV1 ovarian = tested on: IGROV1 ovarian
A549 NSCLC = tested on: A549 NSCLC
SR leukemia = tested on: SR leukemia
UO-31 renal = tested on: UO-31 renal
T-47D breast = tested on: T-47D breast
OVCAR-3 ovarian = tested on: OVCAR-3 ovarian
SF-268 CNS = tested on: SF-268 CNS
MDA-MB-231 breast = tested on: MDA-MB-231 breast
LOX IMVI melanoma = tested on: LOX IMVI melanoma
SK-MEL-2 melanoma = tested on: SK-MEL-2 melanoma
NCI/ADR-RES ovarian = tested on: NCI/ADR-RES ovarian
HCT-15 colon = tested on: HCT-15 colon
HL-60(TB) leukemia = tested on: HL-60(TB) leukemia
HOP-92 NSCLC = tested on: HOP-92 NSCLC
HCT-116 colon = tested on: HCT-116 colon
PC-3 prostate = tested on: PC-3 prostate
HT29 colon = tested on: HT29 colon
DU-145 prostate = tested on: DU-145 prostate
K-562 leukemia = tested on: K-562 leukemia
SNB-19 CNS = tested on: SNB-19 CNS
A498 renal = tested on: A498 renal
OVCAR-4 ovarian = tested on: OVCAR-4 ovarian

COc1ccc(C(=O)/C=C/c2ccc(OC)c(OCc3ccccc3)c2)cc1OC
GI50 (MOLT-4 leukemia): 2700 nM
TGI (MOLT-4 leukemia): 8.73 µM
GI50 (KM12 colon): 3.93 µM
TGI (KM12 colon): 38.6 µM
GI50 (HOP-62 NSCLC): 3.37 µM
TGI (HOP-62 NSCLC): 82.6 µM
GI50 (SN12C renal): 2890 nM
TGI (SN12C renal): > 100 µM
GI50 (MCF7 breast): 2640 nM
TGI (MCF7 breast): > 100 µM
GI50 (U251 CNS): 3.02 µM
TGI (U251 CNS): > 100 µM
GI50 (NCI-H23 lung): 4.39 µM
TGI (NCI-H23 lung): 43.6 µM
GI50 (OVCAR-8 ovarian): 3.25 µM
TGI (OVCAR-8 ovarian): > 100 µM
GI50 (COLO 205 colon): 4.33 µM
TGI (COLO 205 colon): 38 µM
GI50 (HCC-2998 colon): 3.39 µM
TGI (HCC-2998 colon): > 100 µM
GI50 (CCRF-CEM leukemia): 3.22 µM
TGI (CCRF-CEM leukemia): > 100 µM
GI50 (BT-549 breast): 2550 nM
TGI (BT-549 breast): 8.42 µM
GI50 (M14 melanoma): 9.79 µM
TGI (M14 melanoma): > 100 µM
GI50 (NCI-H226 lung): 6.35 µM
TGI (NCI-H226 lung): 95.9 µM
GI50 (786-0 renal): 4.13 µM
TGI (786-0 renal): > 100 µM
GI50 (ACHN renal): 6.86 µM
TGI (ACHN renal): > 100 µM
GI50 (UACC-62 melanoma): 3.81 µM
TGI (UACC-62 melanoma): 33.9 µM
GI50 (HS 578T breast): 7.71 µM
TGI (HS 578T breast): 53.5 µM
GI50 (SF-539 CNS): 2040 nM
TGI (SF-539 CNS): 4.65 µM
GI50 (NCI-H460 lung): 3.67 µM
TGI (NCI-H460 lung): 20.3 µM
GI50 (EKVX NSCLC): 13.4 µM
TGI (EKVX NSCLC): > 100 µM
GI50 (MALME-3M melanoma): 25.1 µM
TGI (MALME-3M melanoma): > 100 µM
GI50 (SK-MEL-5 melanoma): 11.7 µM
TGI (SK-MEL-5 melanoma): 27.5 µM
GI50 (SK-OV-3 ovarian): 8.23 µM
TGI (SK-OV-3 ovarian): > 100 µM
GI50 (CAKI-1 renal): 9.93 µM
TGI (CAKI-1 renal): > 100 µM
GI50 (UACC-257 melanoma): 6.57 µM
TGI (UACC-257 melanoma): > 100 µM
GI50 (SF-295 CNS): 5.43 µM
TGI (SF-295 CNS): > 100 µM
GI50 (RPMI-8226 leukemia): 2640 nM
TGI (RPMI-8226 leukemia): > 100 µM
GI50 (MDA-MB-468 breast): 2940 nM
TGI (MDA-MB-468 breast): 19.6 µM
GI50 (RXF 393 renal): 4.61 µM
TGI (RXF 393 renal): > 100 µM
GI50 (SW-620 colon): 3.04 µM
TGI (SW-620 colon): > 100 µM
GI50 (SK-MEL-28 melanoma): 21.4 µM
TGI (SK-MEL-28 melanoma): > 100 µM
GI50 (OVCAR-5 ovarian): 2970 nM
TGI (OVCAR-5 ovarian): > 100 µM
GI50 (SNB-75 CNS): 1590 nM
TGI (SNB-75 CNS): 7.21 µM
GI50 (TK-10 renal): 4.87 µM
TGI (TK-10 renal): > 100 µM
GI50 (MDA-MB-435): 3.47 µM
TGI (MDA-MB-435): > 100 µM
GI50 (NCI-H522 lung): 3.18 µM
TGI (NCI-H522 lung): 26 µM
GI50 (IGROV1 ovarian): 3.42 µM
TGI (IGROV1 ovarian): > 100 µM
GI50 (A549 NSCLC): 3.11 µM
TGI (A549 NSCLC): > 100 µM
GI50 (SR leukemia): 2060 nM
TGI (SR leukemia): 8.61 µM
GI50 (UO-31 renal): 2890 nM
TGI (UO-31 renal): > 100 µM
GI50 (T-47D breast): 2800 nM
TGI (T-47D breast): 80.6 µM
GI50 (OVCAR-3 ovarian): 2960 nM
TGI (OVCAR-3 ovarian): 19.6 µM
GI50 (SF-268 CNS): 8.91 µM
TGI (SF-268 CNS): 70.9 µM
GI50 (MDA-MB-231 breast): 4.11 µM
TGI (MDA-MB-231 breast): > 100 µM
GI50 (LOX IMVI melanoma): 2660 nM
TGI (LOX IMVI melanoma): > 100 µM
GI50 (SK-MEL-2 melanoma): 14.4 µM
TGI (SK-MEL-2 melanoma): 60.1 µM
GI50 (NCI/ADR-RES ovarian): 3 µM
TGI (NCI/ADR-RES ovarian): > 100 µM
GI50 (HCT-15 colon): 2690 nM
TGI (HCT-15 colon): > 100 µM
GI50 (HL-60(TB) leukemia): 5.06 µM
TGI (HL-60(TB) leukemia): 24.8 µM
GI50 (HOP-92 NSCLC): 4.67 µM
TGI (HOP-92 NSCLC): > 100 µM
GI50 (HCT-116 colon): 3.35 µM
TGI (HCT-116 colon): > 100 µM
GI50 (PC-3 prostate): 4.99 µM
TGI (PC-3 prostate): > 100 µM
GI50 (HT29 colon): 4 µM
TGI (HT29 colon): > 100 µM
GI50 (DU-145 prostate): 3.83 µM
TGI (DU-145 prostate): > 100 µM
GI50 (K-562 leukemia): 2860 nM
TGI (K-562 leukemia): > 100 µM
GI50 (SNB-19 CNS): 3.46 µM
TGI (SNB-19 CNS): > 100 µM
GI50 (A498 renal): 17.5 µM
TGI (A498 renal): 61.4 µM
GI50 (OVCAR-4 ovarian): 5.2 µM
TGI (OVCAR-4 ovarian): 61.5 µM
